Here are results for six compounds from ChEMBL document CHEMBL4840378 (J Med Chem, 2021).

Data set [1] in a line: Metabolic stability in human liver S9 fraction assessed as compound remaining measured after 1 hr. It counts as ADME, subcellular. The settings on record: read-out: Stability.
The nature of data set [2]: Metabolic stability in rat liver S9 fraction assessed as compound remaining measured after 1 hr. It counts as ADME, subcellular. To be noted: read-out: Stability.
Data set [3] is described as follows: AUCinf in rat at 10 mg/kg, po. It counts as ADME, organism-based. To be noted: in vivo. Also on record: route oral, time infinity, dose 10 mg/kg.
Data set [4] can be described thus: Clearance in rat at 2 mg/kg. It counts as ADME, organism-based. The settings on record: in vivo.

For the compound `CO[C@H]1CC[C@H](Nc2ncc(C(N)=O)c(N[C@@H]3CCCC(F)(F)C3)n2)CC1` (mixture of isomers), the remaining at 1 h is 61% in data set [1] and 1% in data set [2].

Turning to `CC(C)(C)Nc1ncc(C(N)=O)c(N[C@@H]2CCC[C@H](O)C2)n1`, the total exposure AUC(0-inf) (in general, total exposure, with the tail of the curve extrapolated) in data set [3] worked out at 10.8 µM·h. Further, the remaining at 1 h in data set [1] was 93%; in data set [2], 98%. For the same compound, in data set [4], the clearance – broadly, the volume of plasma or blood freed of the substance per unit of time – came to 78 mL/min/kg.

The compound `NC(=O)c1cnc(NC23CC(C2)C3)nc1N[C@@H]1CCC[C@H](O)C1` came in with an AUC(0-inf) in data set [3] of 2.25 µM·h. Moreover, the remaining at 1 h was 96% in data set [1] and 75% in data set [2].

For `NC(=O)c1cnc(NC2CCCCC2)nc1N[C@@H]1CCC[C@H](O)C1`, the remaining at 1 h in data set [1] was determined as 77%; in data set [2], 1%.

On to `C[C@@H]1CC[C@@H](Nc2nc(NC(C)(C)C)ncc2C(N)=O)C[C@H]1O` [CC-90001], for which the AUC(0-inf) in data set [3] stood at 35.5 µM·h. The clearance in data set [4] came out at 11 mL/min/kg.

In the case of `CO[C@H]1CCC[C@@H](Nc2nc(N[C@H]3CC[C@H](OC)CC3)ncc2C(N)=O)C1`, the remaining at 1 h in data set [1] turned out to be 91%; in data set [2], 47%.
